# Reference: article PMC5603573, “Cyclipostins and Cyclophostin analogs as promising compounds in the fight against tuberculosis” (Scientific Reports, 2017)
# Read-outs that look alike come from different tables or passages of the source.
# What was measured:
# in vitro = conditions: mouse
# M. tb H37Rv-GFP [1] = test: microbe, parasite or virus in culture; assay type: cell-based, Mycobacterium tuberculosis
# [2] = system: M. tb H37Rv-GFP replicating inside Raw264.7 macrophages; test: microbe, parasite or virus in culture; assay type: cell-based, Mycobacterium tuberculosis; conditions: for MIC50: read-out: Intracellular macrophage growth MIC50
# M. tb [3] = system: M. tb; set-up: method as in earlier work; conditions: combined application with vancomycin; ref 62 (Orlistat), 28 (Lalistat); cited from earlier work
# M. tb [4] = system: M. tb; set-up: method as in PMID 23029536, PMID 27503643, doi:10.1039/C6MD00231E; conditions: M. tb growth, inhibitor alone; cited from earlier work
# [5] = system: serine/cysteine enzymes in M. tb mc^26230 lysate; test: Competitive ABPP labelling/enrichment with Desthiobiotin-FP (and TAMRA-FP), LC-MS/MS target identification; assay type: binding, Mycobacterium tuberculosis; conditions: lysate pre-incubated with 580 µM inhibitor, 37 °C, 90 min
# [6] = system: M. tb mc^26230-empty vector; test: REMA, empty vector strain; assay type: cell-based, Mycobacterium tuberculosis; conditions: Mycobacterium tuberculosis, REMA
# M. tb mc^26230 WT = test: microbe, parasite or virus in culture; assay type: cell-based; conditions: REMA
# [7] = system: M. tb H37Rv-GFP replicating inside Raw264.7 macrophages; set-up: method as in PMID 19876393; conditions: Raw264.7 macrophages infected with M. tb H37Rv-GFP; cited from earlier work
# [8] = system: Raw264.7 murine macrophages; set-up: method as in PMID 19876393; conditions: 50% host cell toxicity, Raw264.7 macrophages, read-out: Intracellular macrophage growth CC50, cited from earlier work
# M. tb H37Rv-GFP [9] = system: M. tb H37Rv-GFP; set-up: method as in PMID 19876393; conditions: M. tb H37Rv-GFP in broth medium; cited from earlier work
# [10] = Mycobacterium tuberculosis, H37RV, 120 h, read-out: Extracellular growth MIC50
# [11] = read-out: Extracellular growth MIC50
# [12] = Mycobacterium tuberculosis, H37RV, 120 h
compound,measurement,setting,value
CCCCCCCCCCC1CCP(=O)(OC)OC(C)=C1C(=O)OC (stereo not drawn) [CyC 7(β)],CC50,in vitro,> 100 µM
same,MIC50,M. tb H37Rv-GFP [1]; [10],16 to 40 µM
same,MIC50,M. tb H37Rv-GFP [1]; [11],16.6 µM
same,MIC50,[2]; [12],3 to 4 µM
same,MIC50,[2],3.1 µM
CCCCCCCCCCCCC1CCP(=O)(OC)OC(C)=C1C(=O)OC (stereo not drawn) [CyC 8(β)],CC50,in vitro,> 20 µM
same,MIC50,M. tb H37Rv-GFP [1]; [10],> 100 µM
same,MIC50,[2]; [12],11.7 µM
CCCCCCCCCCCCCCCCOP1(=O)CCCC(C(=O)OC)=C(C)O1 (centres unmarked) [CyC 11],antibacterial activity against M. tb (in words),M. tb H37Rv-GFP [1],non-active
CCCCCCCCCCC[C@@H](C[C@@H]1OC(=O)[C@H]1CCCCCC)OC(=O)[C@H](CC(C)C)NC=O [Orlistat],MIC,M. tb [3],~ 6 µM
same,MIC drop,M. tb [3],16 fold
same,MIC,M. tb [4],25 to 50 µM
"CCCCCCCCCCCCCCCCO[P@]1(=O)OC[C@H]2COC(=O)C2=C(C)O1 [CyC 18(β), Cyclipostins P]",CC50,in vitro,> 100 µM
same,MIC50,M. tb H37Rv-GFP [1]; [10],1.7 µM
same,Intracellular macrophage growth MIC50,[2],No effect
CCCCCCCCCCCC[C@@H]1CC[P@](=O)(OC)OC(C)=C1C(=O)OC (relative stereo) [CyC 8(α)],CC50,in vitro,> 100 µM
same,MIC50,[2]; [12],3 to 4 µM
same,MIC50,[2],4.0 µM
CCCCCC1CCP(=O)(OC)OC(C)=C1C(=O)OC (stereo not drawn) [CyC 6(β)],CC50,in vitro,> 100 µM
same,Extracellular growth MIC50,M. tb H37Rv-GFP [1],No effect
same,MIC50,[2]; [12],12.6 µM
MmPPOX,MIC,M. tb [4],25 to 50 µM
CCCCCCCCCCCCCCCCOP1(=O)OCCC(C(=O)OC)=C(C)O1 (centres unmarked) [CyC 17],CC50,in vitro,> 100 µM
same,Effect of pre-treatment on Desthiobiotin-FP labelled bands (SDS-PAGE),[5],"decrease in intensity of bands 1, 2 and 8; or disapearance of bands 3-7 and 9"
same,MIC50,M. tb H37Rv-GFP [1]; [10],0.5 µM
same,MIC50,"M. tb H37Rv-GFP [1]; Mycobacterium tuberculosis, H37RV, read-out: Extracellular MIC50",~0.5 µM
same,MIC50,M. tb H37Rv-GFP [1]; [11],0.50 µM
same,MIC50,[6],0.52 ± 0.01 µM
same,MIC50,"M. tb mc^26230 WT; Mycobacterium tuberculosis, read-out: MIC50",0.55 ± 0.023 µM
same,MIC50,M. tb mc^26230 WT,0.55 ± 0.023 µM
same,Intracellular macrophage growth MIC50,[2],No effect
Lalistat,MIC,M. tb [3],6 to 12 µM
same,MIC drop,M. tb [3],4 fold
same,MIC,M. tb [4],25 to 50 µM
CCCCCCCCCCCCCCCCOP1(=O)OC(C)=C(C(=O)OC)CCC1(F)F (centres unmarked) [CyC 14],antibacterial activity against M. tb (in words),M. tb H37Rv-GFP [1],non-active
"CO[C@H]1/C=C/O[C@@]2(C)Oc3c(C)c(O)c4c(O)c(c(/C=N/N5CCN(C)CC5)c(O)c4c3C2=O)NC(=O)/C(C)=C\C=C\[C@H](C)[C@H](O)[C@@H](C)[C@@H](O)[C@@H](C)[C@H](OC(C)=O)[C@@H]1C [Rifampicin (RIF), Rifampicin]",Intracellular macrophage growth MIC50,[7],2.9 µM
same,CC50,[8],24 µM
same,Extracellular growth MIC50,M. tb H37Rv-GFP [9],0.01 µM
CCCCCCCCCC[C@@H]1CC[P@](=O)(OC)OC(C)=C1C(=O)OC (relative stereo) [CyC 7(α)],CC50,in vitro,> 100 µM
same,MIC50,M. tb H37Rv-GFP [1]; [10],92.6 µM
same,MIC50,[2]; [12],4.5 µM
CCCCCCCCCCCCCCCCO[P@]1(=O)OC[C@@H]2COC(=O)C2=C(C)O1 [CyC 18(α)],CC50,in vitro,> 100 µM
same,MIC50,M. tb H37Rv-GFP [1]; [10],24.4 µM
same,Intracellular macrophage growth MIC50,[2],No effect
CCCCCCCCCCCCCCCCOP1(=O)CCC(CCCCCCCCCC)C(C(=O)OC)=C(C)O1 (centres unmarked) [CyC 13],antibacterial activity against M. tb (in words),M. tb H37Rv-GFP [1],did not yield any significant antibacterial activity
CCCCCCCCCCCCCCCCCCOP1(=O)CCCC(C(=O)OC)=C(C)O1 (centres unmarked) [CyC 12],antibacterial activity against M. tb (in words),M. tb H37Rv-GFP [1],non-active
"CCc1cc(C(N)=S)ccn1 [Ethionamide (ETO), Ethionamide]",Intracellular macrophage growth MIC50,[7],6.0 µM
same,CC50,[8]; listed as ethionamide,≥ 120 µM
same,CC50,[8],120 µM
same,Extracellular growth MIC50,M. tb H37Rv-GFP [9],6.0 µM
"NNC(=O)c1ccncc1 [Isoniazid (INH), Isoniazid]",Intracellular macrophage growth MIC50,[7],1.2 µM
same,CC50,[8],> 150 µM
same,Extracellular growth MIC50,M. tb H37Rv-GFP [9],1.2 µM
